Source: ChEMBL document CHEMBL4325848, “Quinoline and quinolone dimers and their biological activities: An overview” (Eur J Med Chem, 2019)
≈ marks a conversion by molar mass, not a printed value.

Experiments:
[1] = biological target: Histone-lysine N-methyltransferase, H3 lysine-79 specific (Homo sapiens, UniProt Q8TEK3); experiment: Inhibition of DOT1L (unknown origin)
HL-60 = experiment: Antiproliferative activity against human HL60 cells; assay type: functional, cell-based
Staphylococcus aureus [2] = experiment: Antibacterial activity against Staphylococcus aureus 1199B; assay type: functional
Staphylococcus aureus [3] = experiment: Antibacterial activity against Staphylococcus aureus 1199-3; assay type: functional
Staphylococcus aureus [4] = experiment: Antibacterial activity against Staphylococcus aureus ATCC 6538 assessed as zone of inhibition at 100 ug/disc; assay type: functional; settings: read-out: DIZ
Staphylococcus aureus [5] = experiment: Antibacterial activity against Staphylococcus aureus 1199; assay type: functional
Staphylococcus aureus [6] = experiment: Antibacterial activity against glycopeptide-intermediate Staphylococcus aureus; assay type: functional
Escherichia coli [7] = experiment: Antibacterial activity against Escherichia coli ATCC 8739 assessed as zone of inhibition at 50 ug/disc; assay type: functional; settings: read-out: DIZ
Plasmodium vinckei = experiment: Antimalarial activity against Plasmodium vinckei infected in ip dosed mouse; assay type: functional
Plasmodium falciparum [8] = experiment: Antiprotozoal activity against chloroquine-sensitive Plasmodium falciparum D6; assay type: functional, organism-based
Plasmodium falciparum [9] = experiment: Antiprotozoal activity against chloroquine-resistant Plasmodium falciparum W2; assay type: functional, organism-based
Plasmodium falciparum [10] = experiment: Antimalarial activity against chloroquine-resistant Plasmodium falciparum K1; assay type: functional, organism-based
Plasmodium falciparum [11] = experiment: Antimalarial activity against chloroquine-sensitive Plasmodium falciparum 3D7; assay type: functional, organism-based
Escherichia coli [12] = experiment: Antibacterial activity against Escherichia coli; assay type: functional
Enterococcus = experiment: Antibacterial activity against Enterococcus; assay type: functional
Shigella = experiment: Antibacterial activity against Shigella; assay type: functional
Klebsiella pneumoniae = experiment: Antibacterial activity against Klebsiella pneumoniae; assay type: functional
Staphylococcus aureus [13] = experiment: Antibacterial activity against Staphylococcus aureus; assay type: functional
Proteus = experiment: Antibacterial activity against Proteus; assay type: functional
Plasmodium falciparum [14] = experiment: Antimalarial activity against pfmdr1-overexpressing chloroquine-resistant Plasmodium falciparum K1mef; assay type: functional, organism-based; settings: K1 mef
Plasmodium falciparum [15] = experiment: Antimalarial activity against chloroquine-sensitive Plasmodium falciparum D10; assay type: functional, organism-based
[16] = Selectivity index, ratio of CC50 for human MRC5 cells to IC50 for chloroquine-resistant Plasmodium falciparum FcB1; assay type: toxicity; settings: read-out: Ratio CC50/IC50
Plasmodium falciparum [17] = experiment: Antimalarial activity against chloroquine-resistant Plasmodium falciparum FcB1; assay type: functional, organism-based; settings: FcB1/Columbia
[18] = Cytotoxicity against human MRC5 cells; assay type: cell-based
Plasmodium berghei = experiment: Antimalarial activity against Plasmodium berghei N/13 infected in MF1 mouse; assay type: functional; settings: read-out: ID50 (the source's name)
Plasmodium falciparum [19] = experiment: Potency index, ratio of chloroquine IC50 to compound IC50 for antimalarial activity against chloroquine-resistant Plasmodium falciparum K1; assay type: functional
MV4-11 = experiment: Antiproliferative activity against human MV4-11 cells; assay type: functional, cell-based
Kasumi 1 = experiment: Antiproliferative activity against human Kasumi-1 cells; assay type: functional, cell-based
MCF7 = experiment: Antiproliferative activity against human MCF7 cells; assay type: functional
MDA-MB-468 = experiment: Antiproliferative activity against human MDA-MB-468 cells; assay type: functional

Histone-lysine N-methyltransferase, H3 lysine-79 specific, sequence (Q8TEK3 whole entry): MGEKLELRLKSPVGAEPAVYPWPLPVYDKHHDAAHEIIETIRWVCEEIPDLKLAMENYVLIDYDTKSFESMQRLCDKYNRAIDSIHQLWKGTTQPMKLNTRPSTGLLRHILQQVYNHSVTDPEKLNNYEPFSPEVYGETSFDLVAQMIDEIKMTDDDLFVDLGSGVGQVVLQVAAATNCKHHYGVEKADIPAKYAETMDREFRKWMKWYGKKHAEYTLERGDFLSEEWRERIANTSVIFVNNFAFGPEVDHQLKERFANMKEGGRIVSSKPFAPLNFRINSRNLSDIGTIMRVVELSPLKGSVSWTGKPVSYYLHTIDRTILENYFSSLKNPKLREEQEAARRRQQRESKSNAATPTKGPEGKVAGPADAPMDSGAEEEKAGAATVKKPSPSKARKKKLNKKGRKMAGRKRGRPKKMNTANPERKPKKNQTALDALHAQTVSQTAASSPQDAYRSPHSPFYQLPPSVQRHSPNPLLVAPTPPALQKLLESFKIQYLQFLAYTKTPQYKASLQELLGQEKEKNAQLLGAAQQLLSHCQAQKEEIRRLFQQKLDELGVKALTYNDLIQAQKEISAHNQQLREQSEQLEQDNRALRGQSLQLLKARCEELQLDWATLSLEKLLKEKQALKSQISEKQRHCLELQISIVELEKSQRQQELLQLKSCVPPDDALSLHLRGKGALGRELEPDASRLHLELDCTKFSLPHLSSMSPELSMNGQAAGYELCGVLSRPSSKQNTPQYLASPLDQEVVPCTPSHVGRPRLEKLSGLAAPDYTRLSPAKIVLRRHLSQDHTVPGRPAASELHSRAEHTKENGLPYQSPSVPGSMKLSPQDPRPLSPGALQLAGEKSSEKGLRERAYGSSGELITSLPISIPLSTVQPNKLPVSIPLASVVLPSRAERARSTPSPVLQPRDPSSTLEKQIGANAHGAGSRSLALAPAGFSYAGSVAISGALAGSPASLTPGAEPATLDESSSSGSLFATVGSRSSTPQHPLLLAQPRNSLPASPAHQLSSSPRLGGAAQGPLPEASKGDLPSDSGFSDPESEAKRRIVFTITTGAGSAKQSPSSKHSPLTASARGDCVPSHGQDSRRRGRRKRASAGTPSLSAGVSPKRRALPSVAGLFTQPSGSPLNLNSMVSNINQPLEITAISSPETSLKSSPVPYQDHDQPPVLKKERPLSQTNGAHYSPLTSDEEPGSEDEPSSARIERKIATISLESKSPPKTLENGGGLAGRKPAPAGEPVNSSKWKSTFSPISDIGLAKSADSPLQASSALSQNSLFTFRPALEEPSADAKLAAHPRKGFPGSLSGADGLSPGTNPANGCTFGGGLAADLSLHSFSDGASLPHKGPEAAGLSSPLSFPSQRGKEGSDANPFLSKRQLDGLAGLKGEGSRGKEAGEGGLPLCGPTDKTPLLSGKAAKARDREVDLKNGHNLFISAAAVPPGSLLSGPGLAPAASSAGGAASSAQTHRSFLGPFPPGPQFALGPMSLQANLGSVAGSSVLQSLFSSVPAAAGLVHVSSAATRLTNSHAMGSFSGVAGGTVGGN

## Cc1cc(Nc2ccc3nc(C)cc(N)c3c2)nc(Nc2ccc3nc(C)cc(N)c3c2)n1
[1]
  IC50: 1500 nM

## C[C@H]1COc2c(N3CCN(C)CC3)c(F)cc3c(=O)c(-c4nn5c(-c6cn(C7CC7)c7cc(N8CCNCC8)c(F)cc7c6=O)nnc5s4)cn1c23
HL-60
  IC50: 120 nM

## O=C(O)c1cn(C2CC2)c2cc(N3CCNCC3)c(F)cc2c1=O [CIPROFLOXACIN]
Staphylococcus aureus [2]
  MIC: 0.125 to 16 µg/mL (≈ 0.377 to 48.3 µM)
Staphylococcus aureus [3]
  MIC: 0.125 to 16 µg/mL (≈ 0.377 to 48.3 µM)
Staphylococcus aureus [4]
  zone of inhibition at 100 µg/disc: 38 mm
Staphylococcus aureus [5]
  MIC: 0.125 to 16 µg/mL (≈ 0.377 to 48.3 µM)
Staphylococcus aureus [6]
  MIC: > 16 µg/mL
Escherichia coli [7]
  zone of inhibition at 50 µg/disc: 36 mm

## COc1cc(C)nc2ccc(Nc3cc(C)nc(Nc4ccc5nc(C)cc(OC)c5c4)n3)cc12
[1]
  IC50: 21700 nM

## c1ccc2c(c1)nc(NCCCN1CCN(CCCNc3nc4ccccc4c4sccc34)CC1)c1ccsc12
Plasmodium vinckei
  ED50: 30 mg/kg

## Clc1ccc2c(NCCCOCCCCOCCCNc3ccnc4cc(Cl)ccc34)ccnc2c1
Plasmodium falciparum [8]
  IC50: 1.2 to 89 nM
Plasmodium falciparum [9]
  IC50: 1.2 to 89 nM

## CCC(C)[C@H](Nc1ccnc2cc(Cl)ccc12)C(=O)NCCNc1ccnc2cc(Cl)ccc12 (stereo not given in full)
Plasmodium falciparum [10]
  IC50: 26 nM
Plasmodium falciparum [11]
  IC50: 24 nM

## CN1CCN(c2cc3c(cc2F)c(=O)c(-c2nn4c(-c5cn(C6CC6)c6cc(N7CCNCC7)c(F)cc6c5=O)nnc4s2)cn3C2CC2)CC1
HL-60
  IC50: 540 nM

## O=C(O)c1cn(C2CC2)c2cc(N3CCN(c4nc(N5CCN(c6cc7c(cc6F)c(=O)c(C(=O)O)cn7C6CC6)CC5)c(F)c(S(=O)(=O)c5ccccc5)c4F)CC3)c(F)cc2c1=O
Escherichia coli [12]
  MIC: 0.25 to 2 µg/mL (≈ 0.274 to 2.19 µM)
Enterococcus
  MIC: 0.25 to 2 µg/mL (≈ 0.274 to 2.19 µM)
Shigella
  MIC: 0.25 to 2 µg/mL (≈ 0.274 to 2.19 µM)
Klebsiella pneumoniae
  MIC: 0.25 to 2 µg/mL (≈ 0.274 to 2.19 µM)
Staphylococcus aureus [13]
  MIC: 0.25 to 2 µg/mL (≈ 0.274 to 2.19 µM)
Proteus
  MIC: 0.25 to 2 µg/mL (≈ 0.274 to 2.19 µM)

## Clc1ccc2c(NCCOCCOCCNc3ccnc4cc(Cl)ccc34)ccnc2c1
Plasmodium falciparum [8]
  IC50: 1.2 to 89 nM
Plasmodium falciparum [9]
  IC50: 1.2 to 89 nM

## Clc1ccc2c(NCCCNCCNc3ccnc4cc(Cl)ccc34)ccnc2c1
Plasmodium falciparum [8]
  IC50: 1.2 to 89 nM
Plasmodium falciparum [9]
  IC50: 1.2 to 89 nM

## CCC1C[C@@H]2CC[C@H]1CC2C(O)c1ccnc2c(NC(=O)CCCCC(=O)Nc3cccc4c(C(O)C5C[C@@H]6CC[C@H]5C(CC)C6)ccnc34)cccc12 (stereo not given in full)
Plasmodium falciparum [10]
  IC50: 20 nM
Plasmodium falciparum [14]
  IC50: 20 nM
Plasmodium falciparum [15]
  IC50: 50 nM

## Clc1ccc2c(NCCCOCCOCCOCCCNc3ccnc4cc(Cl)ccc34)ccnc2c1
Plasmodium falciparum [8]
  IC50: 1.2 to 89 nM
Plasmodium falciparum [9]
  IC50: 1.2 to 89 nM

## CCn1cc(C(=O)O)c(=O)c2cc(F)c(N3CCNCC3)cc21 [NORFLOXACIN]
Staphylococcus aureus [2]
  MIC: 0.125 to 16 µg/mL (≈ 0.391 to 50.1 µM)
Staphylococcus aureus [3]
  MIC: 0.125 to 16 µg/mL (≈ 0.391 to 50.1 µM)
Staphylococcus aureus [5]
  MIC: 0.125 to 16 µg/mL (≈ 0.391 to 50.1 µM)
Staphylococcus aureus [6]
  MIC: > 16 µg/mL

## Clc1ccc2c(NCCCN3CCN(CCCNCc4ccnc5ccccc45)CC3)ccnc2c1
[16]
  selectivity ratio: 816
Plasmodium falciparum [17]
  IC50: 20.1 nM
[18]
  CC50: 16400 nM

## Cc1cc(N)c2cc(Nc3ccnc(Nc4ccc5nc(C)cc(N)c5c4)n3)ccc2n1
[1]
  IC50: 1080 nM

## Clc1ccc2c(N[C@@H]3CCCC[C@H]3Nc3ccnc4cc(Cl)ccc34)ccnc2c1 (relative stereo)
Plasmodium berghei
  ED50: 3 mg/kg
Plasmodium falciparum [8]
  IC50: 1 nM
Plasmodium falciparum [9]
  IC50: 1.4 nM

## CN(CCCNc1ccnc2cc(Cl)ccc12)CCCNc1ccnc2cc(Cl)ccc12
Plasmodium falciparum [8]
  IC50: 1.2 to 89 nM
Plasmodium falciparum [9]
  IC50: 1.2 to 89 nM

## FC(F)(F)c1ccc2c(N[C@@H]3CCCC[C@H]3Nc3ccnc4cc(C(F)(F)F)ccc34)ccnc2c1
Plasmodium berghei
  ED50: 5.9 mg/kg

## CCN(CC)CCCC(C)Nc1cc(CCCCCCCCCCCCc2cc(NC(C)CCCN(CC)CC)c3ccccc3n2)nc2ccccc12 (stereo not given)
Plasmodium falciparum [19]
  Ratio IC50: 31.7

## Clc1ccc2c(NCCCCCCNCCCCCCNc3ccnc4cc(Cl)ccc34)ccnc2c1
Plasmodium falciparum [8]
  IC50: 1.2 to 89 nM
Plasmodium falciparum [9]
  IC50: 1.2 to 89 nM

## O=C(O)c1cn(C2CC2)c2cc(N3CCN(c4nc(Cl)nc(N5CCN(c6cc7c(cc6F)c(=O)c(C(=O)O)cn7C6CC6)CC5)n4)CC3)c(F)cc2c1=O
Escherichia coli [12]
  MIC: 0.25 to 2 µg/mL (≈ 0.323 to 2.58 µM)
Enterococcus
  MIC: 0.25 to 2 µg/mL (≈ 0.323 to 2.58 µM)
Shigella
  MIC: 0.25 to 2 µg/mL (≈ 0.323 to 2.58 µM)
Klebsiella pneumoniae
  MIC: 0.25 to 2 µg/mL (≈ 0.323 to 2.58 µM)
Staphylococcus aureus [13]
  MIC: 0.25 to 2 µg/mL (≈ 0.323 to 2.58 µM)
Proteus
  MIC: 0.25 to 2 µg/mL (≈ 0.323 to 2.58 µM)

## Cc1cc(Nc2ccc3nc(C)cc(O)c3c2)nc(Nc2ccc3nc(C)cc(O)c3c2)n1
[1]
  IC50: 4350 nM

## Cc1cc(N)c2cc(Nc3cc(Nc4ccc5nc(C)cc(N)c5c4)ncn3)ccc2n1
MV4-11
  IC50: 30500 nM
[1]
  IC50: 1060 nM
Kasumi 1
  IC50: 45800 nM

## Clc1ccc2c(NCCNc3ccnc4cc(Cl)ccc34)ccnc2c1
MCF7
  GI50: 14800 nM
MDA-MB-468
  GI50: 7350 nM

## Clc1ccc2c(NCCOCCNc3ccnc4cc(Cl)ccc34)ccnc2c1
Plasmodium falciparum [8]
  IC50: 1.2 to 89 nM
Plasmodium falciparum [9]
  IC50: 1.2 to 89 nM

## CCn1cc(C(=O)O)c(=O)c2cnc(N3CCNCC3)nc21 [PIPEMIDIC ACID]
Staphylococcus aureus [2]
  MIC: 0.125 to 16 µg/mL (≈ 0.412 to 52.7 µM)
Staphylococcus aureus [3]
  MIC: 0.125 to 16 µg/mL (≈ 0.412 to 52.7 µM)
Staphylococcus aureus [5]
  MIC: 0.125 to 16 µg/mL (≈ 0.412 to 52.7 µM)
Staphylococcus aureus [6]
  MIC: > 16 µg/mL
